Test results published in ChEMBL document CHEMBL5365531, “Structure-Activity Relationship Studies of SARS-CoV-2 Main Protease Inhibitors Containing 4-Fluorobenzothiazole-2-carbonyl Moieties” (J Med Chem, 2023).

Tests used:
[1] = test system: SARS-CoV-2; assay: Antiviral activity against SARS-CoV-2 JPN/TY/WK-521 infected in Vero E6 cells preincubated with cells for 1 day followed by viral infection and measured after 3 days by qRT-PCR analysis; format: functional, organism-based; conditions: Severe acute respiratory syndrome coronavirus 2, JPN/TY/WK-521, Vero C1008
[2] = test system: SARS-CoV-2; assay: Antiviral activity against SARS-CoV-2 hCoV-19/Japan/TKYS02037/2022 (omicron BA.2) infected in Vero E6 cells preincubated with cells for 1 day followed by viral infection and measured after 3 days by qRT-PCR analysis; format: functional, organism-based; conditions: Severe acute respiratory syndrome coronavirus 2, hCoV-19/Japan/TKYS02037/2022 (omicron BA.2), Vero C1008
[3] = test system: SARS-CoV-2; assay: Antiviral activity against SARS-CoV-2 JPN/TY/WK-521 infected in Vero E6 cells assessed as inhibition of viral replication preincubated with cells for 1 day followed by viral infection and measured after 3 to 4 days by qRT-PCR analysis; format: functional, organism-based; conditions: Severe acute respiratory syndrome coronavirus 2, JPN/TY/WK-521, Vero C1008
[4] = test system: SARS-CoV-2; assay: Antiviral activity against SARS-CoV-2 assessed as fold change relative to YH-53; format: functional, Severe acute respiratory syndrome coronavirus 2
[5] = Cytotoxicity against African green monkey Vero E6 cells incubated for 3 days by WST-8 assay; format: toxicity, cell-based, Vero C1008; conditions: chlorocebus sabaeus, time 3 day
[6] = Half life in PXB mouse at 10 mg/kg, iv measured for 24 hrs; format: ADME, organism-based; conditions: in vivo
[7] = Half life in PXB mouse at 10 mg/kg, po measured for 24 hrs; format: ADME, organism-based; conditions: in vivo
[8] = Oral bioavailability in PXB mouse at 10 mg/kg measured for 24 hrs; format: ADME, organism-based; conditions: in vivo
[9] = test system: SARS-CoV-2; assay: Antiviral activity against SARS-CoV-2 JPN/TY/WK-521 infected in Vero E6 cells assessed as fold change preincubated with cells for 1 day followed by viral infection and measured after 3 days by qRT-PCR analysis relative to 7-fluoro-N-((S)-1-(((S)-1-(4-fluorobenzo[d]thiazol-2-yl)-1-oxo-3-((S)-2-oxopyrrolidin-3-yl)propan-2-yl)amino)-3,3-dimethyl-1-oxobutan-2-yl)-4-methoxy-1H-indole-2-carboxamide; format: functional, Severe acute respiratory syndrome coronavirus 2; conditions: time 4 day
[10] = test system: SARS-CoV-2; assay: Antiviral activity against SARS-CoV-2 infected in Vero E6 cells preincubated with cells for 1 day in absence of HCl followed by viral infection and measured after 3 days by qRT-PCR analysis; format: functional, organism-based; conditions: Severe acute respiratory syndrome coronavirus 2, Vero C1008
[11] = test system: SARS-CoV-2; assay: Antiviral activity against SARS-CoV-2 infected in Vero E6 cells preincubated with cells for 1 day in presence of HCl treated compound followed by viral infection and measured after 3 days by qRT-PCR analysis; format: functional, organism-based; conditions: Severe acute respiratory syndrome coronavirus 2, Vero C1008
[12] = Cytotoxicity against African green monkey Vero E6 cells in presence of P-glycoprotein inhibitor, CP100356; format: toxicity, cell-based, Vero C1008; conditions: chlorocebus sabaeus, with CP100356 (P-glycoprotein inhibitor)
[13] = Cytotoxicity against human HeLa cells expressing ACE2 and TMPRSS2; format: toxicity, cell-based
[14] = Cytotoxicity against human A549-hACE2-TMPRSS2 cells; format: toxicity, cell-based
[15] = Cytotoxicity against human HepG2 cells; format: toxicity, cell-based
[16] = test system: PBMC; assay: Cytotoxicity against human PBMC cells assessed as reduction in cell viability at 0.4 uM incubated for 12 days by CCK-8 assay; format: toxicity, cell-based; conditions: 288 h, time 12 day
[17] = test system: MOLT-4; assay: Cytotoxicity against human MOLT-4 cells assessed as reduction in cell viability at 0.4 uM incubated for 12 days by CCK-8 assay; format: toxicity, cell-based; conditions: molt-4, 288 h, time 12 day
[18] = test system: MT2; assay: Cytotoxicity against human MT2 cells assessed as reduction in cell viability at 0.4 uM incubated for 12 days by CCK-8 assay; format: toxicity, cell-based; conditions: mt2, 288 h, time 12 day
[19] = Mutagenicity in Salmonella typhimurium TA100 assessed as inhibition of bacterial growth at 0.152 to 333 ug incubated in presence of S9 fraction by micro-Ames test; format: toxicity, subcellular, Salmonella enterica subsp. enterica serovar Typhimurium; conditions: dose 0.152-333 µg
[20] = Mutagenicity in Salmonella typhimurium TA1535 assessed as inhibition of bacterial growth at 0.152 to 333 ug incubated in presence of S9 fraction by micro-Ames test; format: toxicity, subcellular, Salmonella enterica subsp. enterica serovar Typhimurium; conditions: dose 0.152-333 µg
[21] = Mutagenicity in Salmonella typhimurium TA98 assessed as inhibition of bacterial growth at 0.152 to 333 ug incubated in presence of S9 fraction by micro-Ames test; format: toxicity, subcellular, Salmonella enterica subsp. enterica serovar Typhimurium; conditions: dose 0.152-333 µg
[22] = Mutagenicity in Salmonella typhimurium TA1537 assessed as inhibition of bacterial growth at 0.152 to 333 ug incubated in presence of S9 fraction by micro-Ames test; format: toxicity, subcellular, Salmonella enterica subsp. enterica serovar Typhimurium; conditions: dose 0.152-333 µg
[23] = Mutagenicity in Escherichia coli WP2uvrA assessed as inhibition of bacterial growth at 0.152 to 333 ug incubated in presence of S9 fraction by micro-Ames test; format: toxicity, subcellular; conditions: dose 0.152-333 µg
[24] = Mutagenicity in Salmonella typhimurium TA100 assessed as inhibition of bacterial growth at 0.152 to 333 ug incubated in absence of S9 fraction by micro-Ames test; format: toxicity, Salmonella enterica subsp. enterica serovar Typhimurium; conditions: in vivo; dose 0.152-333 µg
[25] = Mutagenicity in Salmonella typhimurium TA1535 assessed as inhibition of bacterial growth at 0.152 to 333 ug incubated in absence of S9 fraction by micro-Ames test; format: toxicity, Salmonella enterica subsp. enterica serovar Typhimurium; conditions: in vivo; dose 0.152-333 µg
[26] = Mutagenicity in Salmonella typhimurium TA98 assessed as inhibition of bacterial growth at 0.152 to 333 ug incubated in absence of S9 fraction by micro-Ames test; format: toxicity, Salmonella enterica subsp. enterica serovar Typhimurium; conditions: in vivo; dose 0.152-333 µg
[27] = Mutagenicity in Salmonella typhimurium TA1537 assessed as inhibition of bacterial growth at 0.152 to 333 ug incubated in absence of S9 fraction by micro-Ames test; format: toxicity, Salmonella enterica subsp. enterica serovar Typhimurium; conditions: in vivo; dose 0.152-333 µg
[28] = Mutagenicity in Escherichia coli WP2uvrA assessed as inhibition of bacterial growth at 0.152 to 333 ug incubated in absence of S9 fraction by micro-Ames test; format: toxicity; conditions: in vivo; dose 0.152-333 µg
[29] = Mutagenicity in Salmonella typhimurium TA100 assessed as fold increase in number of revertants at 0.152 to 333 ug incubated in presence of S9 fraction by micro-Ames test relative to control; format: toxicity, subcellular, Salmonella enterica subsp. enterica serovar Typhimurium; conditions: dose 0.152-333 µg
[30] = Mutagenicity in Salmonella typhimurium TA1535 assessed as fold increase in number of revertants at 0.152 to 333 ug incubated in presence of S9 fraction by micro-Ames test relative to control; format: toxicity, subcellular, Salmonella enterica subsp. enterica serovar Typhimurium; conditions: dose 0.152-333 µg
[31] = Mutagenicity in Salmonella typhimurium TA98 assessed as fold increase in number of revertants at 0.152 to 333 ug incubated in presence of S9 fraction by micro-Ames test relative to control; format: toxicity, subcellular, Salmonella enterica subsp. enterica serovar Typhimurium; conditions: dose 0.152-333 µg
[32] = Mutagenicity in Salmonella typhimurium TA1537 assessed as fold increase in number of revertants at 0.152 to 333 ug incubated in presence of S9 fraction by micro-Ames test relative to control; format: toxicity, subcellular, Salmonella enterica subsp. enterica serovar Typhimurium; conditions: dose 0.152-333 µg
[33] = Mutagenicity in Escherichia coli WP2uvrA assessed as fold increase in number of revertants at 0.152 to 333 ug incubated in presence of S9 fraction by micro-Ames test relative to control; format: toxicity, subcellular; conditions: dose 0.152-333 µg
[34] = Mutagenicity in Salmonella typhimurium TA100 assessed as fold increase in number of revertants at 0.152 to 333 ug incubated in absence of S9 fraction by micro-Ames test relative to control; format: toxicity, Salmonella enterica subsp. enterica serovar Typhimurium; conditions: in vivo; dose 0.152-333 µg
[35] = Mutagenicity in Salmonella typhimurium TA1535 assessed as fold increase in number of revertants at 0.152 to 333 ug incubated in absence of S9 fraction by micro-Ames test relative to control; format: toxicity, Salmonella enterica subsp. enterica serovar Typhimurium; conditions: in vivo; dose 0.152-333 µg
[36] = Mutagenicity in Salmonella typhimurium TA98 assessed as fold increase in number of revertants at 0.152 to 333 ug incubated in absence of S9 fraction by micro-Ames test relative to control; format: toxicity, Salmonella enterica subsp. enterica serovar Typhimurium; conditions: in vivo; dose 0.152-333 µg
[37] = Mutagenicity in Salmonella typhimurium TA1537 assessed as fold increase in number of revertants at 0.152 to 333 ug incubated in absence of S9 fraction by micro-Ames test relative to control; format: toxicity, Salmonella enterica subsp. enterica serovar Typhimurium; conditions: in vivo; dose 0.152-333 µg
[38] = Mutagenicity in Escherichia coli WP2uvrA assessed as fold increase in number of revertants at 0.152 to 333 ug incubated in absence of S9 fraction by micro-Ames test relative to control; format: toxicity; conditions: in vivo; dose 0.152-333 µg
[39] = test system: Vero C1008; assay: Cytotoxicity against African green monkey Vero E6 cells infected with SARS-CoV-2 WK-521 upto 100 uM incubated for 3 days by immunostaining analysis; format: toxicity, cell-based; conditions: chlorocebus sabaeus, vero c1008, 72 h, time 3 day

## CC(C)(C)[C@H](NC(=O)C(F)(F)F)C(=O)N1C[C@H]2[C@@H]([C@H]1C(=O)N[C@@H](C[C@@H]1CCNC1=O)C(=O)c1nc3c(F)cccc3s1)C2(C)C
[1]
  EC50: 12 nM
[2]
  EC50: 48 nM
[3]
  EC50: 30 nM
[4]
  fold change (FC): 0.012
[5]
  CC50 at 72 h: > 100000 nM
[6]
  half-life: 1.25 h
[7]
  half-life: 3.82 h
[8]
  bioavailability: 48%
[9]
  fold change (FC): 0.057
[10]
  EC50: 74 nM
[11]
  EC50: 87 nM
[12]
  CC50: > 100000 nM
[13]
  CC50: > 100000 nM
[14]
  CC50: > 100000 nM
[15]
  CC50: > 200000 nM
[16]
  Activity: Non-Toxic
[17]
  Activity: Non-Toxic
[18]
  Activity: Non-Toxic
[19]
  Activity: Non-Toxic
[20]
  Activity: Non-Toxic
[21]
  Activity: Non-Toxic
[22]
  Activity: Non-Toxic
[23]
  Activity: Non-Toxic
[24]
  Activity: Non-Toxic
[25]
  Activity: Non-Toxic
[26]
  Activity: Non-Toxic
[27]
  Activity: Non-Toxic
[28]
  Activity: Non-Toxic
[29]
  fold change (FC): > 2
[30]
  fold change (FC): > 2
[31]
  fold change (FC): > 2
[32]
  fold change (FC): > 2
[33]
  fold change (FC): > 2
[34]
  fold change (FC): > 2
[35]
  fold change (FC): > 2
[36]
  fold change (FC): > 2
[37]
  fold change (FC): > 2
[38]
  fold change (FC): > 2
[39]
  Activity: Non-Toxic
